# Measured values as given in patent US20230146795A1, “ENHANCEMENT OF ANTI-TUMOR ACTIVITY OF SHP2 INHIBITOR PYRIMIDINONE IN COMBINATION WITH NOVEL CANCER MEDICINES IN CANCERS” (TAIHO PHARMACEUTICAL CO., LTD., priority 2020, published 2023).
# “And” between values parts separate entries of the source, which are not always exact repeats. Equal entries are not always repeated. Where two headings read alike, the source gives them in different places.
# What was measured:
# Assay type in all cases: cell-based
# RT4 = experiment: Anti-proliferation assay (CellTiter-Glo 2.0), combination index, RT4; details: for Description: combination effect
# Method: (§1) Cell lines were obtained from ATCC or Health Science Research Resources Bank.
# (§2) Each cell lines were collected by ordinary method, then suspended in indicated medium containing 10% fetal bovine serum in table 3. The number of cells seeded per well was set to 500 cells/20 μL. […] The concentration of each anti-cancer reagents set to 8 concentrations including 0 nM. After adding the medicine to the cells, the cells were further incubated at 37° C. for 3 days under 5% CO2. Cell survival rates were calculated by adding 20 μL of CellTiter-Glo(registered trademark) 2. 0 (Promega) solution to each well, incubating the cells at room temperature for 10 minutes, and then measuring the chemiluminescence intensity of each well using a plate reader (ARVO).
# (§3) A combination index (CI) value at each combined concentration of the medicines was determined.
# NCI-H358 = experiment: Anti-proliferation assay (CellTiter-Glo 2.0), combination index, NCI-H358
# Method: as §1, §2, §3
# MKN45 = experiment: Anti-proliferation assay (CellTiter-Glo 2.0), combination index, MKN45; details: for Description: combination effect
# Method: as §1, §2, §3
# [1] = Compound 1 13.7 + combination drug 1.37 nmol/L (1:0.1)
# [2] = Compound 1 41.2 + combination drug 4.12 nmol/L (1:0.1)
# [3] = Compound 1 123 + combination drug 12.3 nmol/L (1:0.1)
# [4] = Compound 1 41.2 + combination drug 3330 nmol/L (1:81)
# [5] = Compound 1 123 + combination drug 10000 nmol/L (1:81)
# [6] = Compound 1 123 + combination drug 3330 nmol/L (1:27)
# [7] = Compound 1 370 + combination drug 10000 nmol/L (1:27)
# [8] = Compound 1 4.57 nmol/L + Etoposide 123 nmol/L, molar ratio 1:27
# [9] = Compound 1 13.7 nmol/L + Etoposide 370 nmol/L, molar ratio 1:27
# [10] = Compound 1 41.2 nmol/L + Etoposide 1110 nmol/L, molar ratio 1:27
# [11] = Compound 1 4.57 + combination drug 37.0 nmol/L (1:8.1)
# [12] = Compound 1 13.7 + combination drug 111 nmol/L (1:8.1)
# [13] = Compound 1 41.2 + combination drug 333 nmol/L (1:8.1)
# [14] = Compound 1 123 + combination drug 1000 nmol/L (1:8.1)
# [15] = Compound 1:combination drug molar ratio 1:8.1
# [16] = Compound 1 1.52 nmol/L + Vorinostat 41.2 nmol/L, molar ratio 1:27
# [17] = Compound 1 4.57 nmol/L + Vorinostat 123 nmol/L, molar ratio 1:27
# [18] = Compound 1 13.7 nmol/L + Vorinostat 370 nmol/L, molar ratio 1:27
# [19] = Compound 1 41.2 nmol/L + Vorinostat 1110 nmol/L, molar ratio 1:27
# [20] = Compound 1 123 nmol/L + Vorinostat 3330 nmol/L, molar ratio 1:27
# [21] = Compound 1 370 nmol/L + Vorinostat 10000 nmol/L, molar ratio 1:27
# [22] = Compound 1 1110 nmol/L + Vorinostat 3330 nmol/L, molar ratio 1:3
# [23] = Compound 1 3330 nmol/L + Vorinostat 10000 nmol/L, molar ratio 1:3
# [24] = Compound 1 37.0 + combination drug 4.12 nmol/L (1:0.1)
# [25] = Compound 1 111 + combination drug 12.3 nmol/L (1:0.1)
# [26] = Compound 1 333 + combination drug 37.0 nmol/L (1:0.1)
# [27] = Compound 1 123 + combination drug 556 nmol/L (1:4.5)
# [28] = Compound 1 370 + combination drug 1670 nmol/L (1:4.5)
# [29] = Compound 1 1110 + combination drug 5000 nmol/L (1:4.5)
# [30] = Compound 1 12.3 nmol/L + Gemcitabine 1.23 nmol/L, molar ratio 1:0.1
# [31] = Compound 1 37.0 nmol/L + Gemcitabine 3.70 nmol/L, molar ratio 1:0.1
# [32] = Compound 1 41.2 nmol/L + 5-FU 3330 nmol/L, molar ratio 1:81
# [33] = Compound 1 123 nmol/L + 5-FU 10000 nmol/L, molar ratio 1:81
# [34] = Compound 1 1.52 + combination drug 1.37 nmol/L (1:0.9)
# [35] = Compound 1 4.57 + combination drug 4.12 nmol/L (1:0.9)
# [36] = Compound 1 13.7 + combination drug 12.3 nmol/L (1:0.9)
# [37] = Compound 1 41.2 + combination drug 37.0 nmol/L (1:0.9)
# [38] = Compound 1 123 + combination drug 111 nmol/L (1:0.9)
# [39] = Compound 1 370 + combination drug 333 nmol/L (1:0.9)
# [40] = Compound 1 1110 + combination drug 1000 nmol/L (1:0.9)
# [41] = Compound 1 13.7 + combination drug 123 nmol/L (1:9)
# [42] = Compound 1 41.2 + combination drug 370 nmol/L (1:9)
# [43] = Compound 1 123 + combination drug 1110 nmol/L (1:9)
# [44] = Compound 1 370 + combination drug 3330 nmol/L (1:9)
# [45] = Compound 1 1110 + combination drug 10000 nmol/L (1:9)
smiles,measurement,setting,value
COc1cc(OC)cc(N(CCNC(C)C)c2ccc3ncc(-c4cnn(C)c4)nc3c2)c1 [Erdafitinib],CI,RT4; [1],0.602
same,Fa,RT4; [1],0.3659
same,CI,RT4; [2],0.124
same,Fa,RT4; [2],0.6028
same,CI,RT4; [3],0.129
same,Fa,RT4; [3],0.6985
same,CI,NCI-H358; [4],0.768
same,Fa,NCI-H358; [4],0.3851
same,CI,NCI-H358; [5],0.681
same,Fa,NCI-H358; [5],0.7532
same,Description (combinatory effect by CI),NCI-H358; Compound 1:combination drug molar ratio 1:81,Synergy (0.3-0.7)
CS(=O)(=O)CCNCc1ccc(-c2ccc3ncnc(Nc4ccc(OCc5cccc(F)c5)c(Cl)c4)c3c2)o1 [Lapatinib],CI,MKN45; [6],0.965
same,Fa,MKN45; [6],0.6048
same,CI,MKN45; [7],0.497
same,Fa,MKN45; [7],0.9171
same,Description (combinatory effect by CI),MKN45; Compound 1:combination drug molar ratio 1:27,Synergy (0.3-0.7)
COc1cc([C@@H]2c3cc4c(cc3[C@@H](O[C@@H]3O[C@@H]5CO[C@@H](C)O[C@H]5[C@H](O)[C@H]3O)[C@H]3COC(=O)[C@H]23)OCO4)cc(OC)c1O [Etoposide],CI,RT4; [8],0.460
same,Fa,RT4; [8],0.0637
same,CI,RT4; [9],0.373
same,Fa,RT4; [9],0.2820
same,CI,RT4; [10],0.432
same,Fa,RT4; [10],0.5945
same,Description,"RT4; Compound 1 + Etoposide, molar ratio 1:27",Synergy (0.3-0.7)
C=CC(=O)Nc1cc(Nc2nccc(-c3cn(C)c4ccccc34)n2)c(OC)cc1N(C)CCN(C)C [Osimertinib],CI,RT4; [11],0.844
same,Fa,RT4; [11],0.2395
same,CI,RT4; [12],0.453
same,Fa,RT4; [12],0.4891
same,CI,RT4; [13],0.326
same,Fa,RT4; [13],0.7067
same,CI,RT4; [14],0.550
same,Fa,RT4; [14],0.7777
same,Description (combinatory effect by CI),RT4; [15],Synergy (0.3-0.7)
same,CI,NCI-H358; [12],0.333
same,Fa,NCI-H358; [12],0.2157
same,CI,NCI-H358; [13],0.436
same,Fa,NCI-H358; [13],0.4242
same,CI,NCI-H358; [14],0.844
same,Fa,NCI-H358; [14],0.5579
same,Description (combinatory effect by CI),NCI-H358; [15],Synergy (0.3-0.7)
O=C(CCCCCCC(=O)Nc1ccccc1)NO [Vorinostat],CI,RT4; [16],0.581
same,Fa,RT4; [16],0.0392
same,CI,RT4; [17],0.388
same,Fa,RT4; [17],0.1081
same,CI,RT4; [18],0.647
same,Fa,RT4; [18],0.1594
same,CI,RT4; [19],0.394
same,Fa,RT4; [19],0.4179
same,CI,RT4; [20],0.569
same,Fa,RT4; [20],0.5893
same,CI,RT4; [21],0.334
same,Fa,RT4; [21],0.8967
same,Description,"RT4; Compound 1 + Vorinostat, molar ratio 1:27",Synergy (0.3-0.7)
same,CI,NCI-H358; [22],0.642
same,Fa,NCI-H358; [22],0.7678
same,CI,NCI-H358; [23],0.464
same,Fa,NCI-H358; [23],0.9628
same,Description,"NCI-H358; combination effect, Compound 1 + Vorinostat, molar ratio 1:3",Synergy (0.3-0.7)
CC(=O)Nc1cccc(-n2c(=O)n(C3CC3)c(=O)c3c(Nc4ccc(I)cc4F)n(C)c(=O)c(C)c32)c1 [Trametinib],CI,MKN45; [24],0.358
same,Fa,MKN45; [24],0.4047
same,CI,MKN45; [25],0.389
same,Fa,MKN45; [25],0.6614
same,CI,MKN45; [26],0.693
same,Fa,MKN45; [26],0.7703
same,Description (combinatory effect by CI),MKN45; Compound 1:combination drug molar ratio 1:0.1,Synergy (0.3-0.7)
CCOc1cc2ncc(C#N)c(Nc3ccc(OCc4ccccn4)c(Cl)c3)c2cc1NC(=O)/C=C/CN(C)C [Neratinib],CI,MKN45; [27],0.658
same,Fa,MKN45; [27],0.5592
same,CI,MKN45; [28],0.336
same,Fa,MKN45; [28],0.8104
same,CI,MKN45; [29],0.237
same,Fa,MKN45; [29],0.9240
Nc1ccn([C@@H]2O[C@H](CO)[C@@H](O)C2(F)F)c(=O)n1 [Gemcitabine],CI,MKN45; [30],0.698
same,Fa,MKN45; [30],0.2152
same,CI,MKN45; [31],0.878
same,Fa,MKN45; [31],0.4083
same,Description,"MKN45; Compound 1 + Gemcitabine, molar ratio 1:0.1",Synergy (0.3-0.7)
O=c1[nH]cc(F)c(=O)[nH]1 [Compound 5-FU],CI,MKN45; [32],0.738
same,Fa,MKN45; [32],0.4610
same,CI,MKN45; [33],0.399
same,Fa,MKN45; [33],0.7197
same,Description,"MKN45; Compound 1 + 5-FU, molar ratio 1:81",Synergy (0.3-0.7)
Cc1nc(Nc2ncc(C(=O)Nc3c(C)cccc3Cl)s2)cc(N2CCN(CCO)CC2)n1 [Dasatinib],CI,RT4; [34],0.804
same,Fa,RT4; [34],0.1983
same,CI,RT4; [35],0.356
same,Fa,RT4; [35],0.3708
same,CI,RT4; [36],0.147
same,Fa,RT4; [36],0.5917
same,CI,RT4; [37],0.207
same,Fa,RT4; [37],0.6714
same,CI,RT4; [38],0.096
same,Fa,RT4; [38],0.8271
same,CI,RT4; [39],0.192
same,Fa,RT4; [39],0.8517
same,CI,RT4; [40],0.229
same,Fa,RT4; [40],0.8974
same,CI,NCI-H358; [36],0.342
same,Fa,NCI-H358; [36],0.2486
same,CI,NCI-H358; [37],0.208
same,Fa,NCI-H358; [37],0.4351
same,CI,NCI-H358; [38],0.119
same,Fa,NCI-H358; [38],0.7042
same,CI,NCI-H358; [39],0.227
same,Fa,NCI-H358; [39],0.7700
same,CI,NCI-H358; [40],0.633
same,Fa,NCI-H358; [40],0.7795
Cc1ccc(C(=O)Nc2ccc(CN3CCN(C)CC3)c(C(F)(F)F)c2)cc1C#Cc1cnc2cccnn12 [Ponatinib],CI,NCI-H358,0.794 and 0.463 and 0.639
COc1cc2ncnc(Nc3ccc(F)c(Cl)c3)c2cc1OCCCN1CCOCC1 [Gefitinib],CI,RT4; [12],0.205
same,CI,RT4; [13],0.352
same,CI,RT4; [14],0.445
same,CI,NCI-H358; [12],0.311
same,CI,NCI-H358; [13],0.370
same,CI,NCI-H358; [14],0.724
same,Description (combinatory effect by CI),NCI-H358; [15],Synergy (0.3-0.7)
CNC(=O)c1cc(Oc2ccc(NC(=O)Nc3ccc(Cl)c(C(F)(F)F)c3)c(F)c2)ccn1 [Regorafenib],CI,RT4; [41],0.650
same,Fa,RT4; [41],0.1849
same,CI,RT4; [42],0.582
same,Fa,RT4; [42],0.3071
same,CI,RT4; [43],0.359
same,Fa,RT4; [43],0.5417
same,CI,RT4; [44],0.696
same,Fa,RT4; [44],0.6157
same,CI,RT4; [45],0.979
same,Fa,RT4; [45],0.7401
same,Description (combinatory effect by CI),RT4; Compound 1:combination drug molar ratio 1:9,Synergy (0.3-0.7)
